According to the supplement of paper PMC11061612:

Tests used:
Assay in all cases: Bliss excess, mean over the matrix (fraction); higher = more synergy
[1] = system: ME-180 (Cervical Carcinoma)
Summary of the method: (§1)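 After 24 hours at 37°C and 5% CO2 in 1536-well plates, cells in DMEM/F12 or RPMI plus 10% FBS received two-drug dose matrices for 72 hours. Viability came from CellTiter-Glo 2.0 luminescence and was scaled as inhibition, anchored at 0 by vehicle wells and at 1 by blank wells. Combination Emax is taken as the second-highest inhibition in the matrix, and Bliss excess as the observed combination effect less EA + EB − EA·EB, with EA and EB the single-agent effects.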

[2] = system: ML-2 (Acute Myeloid Leukemia)
Summary of the method: as §1

[3] = system: MOLT-4 (T-Lymphoblastic Leukemia)
Summary of the method: as §1

[4] = system: LC-1-sq (Squamous Cell Lung Carcinoma)
Summary of the method: as §1

[5] = system: MOG-G-UVW (Low Grade Glioma)
Summary of the method: as §1

COLO-679 (Melanoma) = system: COLO-679 (Melanoma)
Summary of the method: as §1

[6] = system: SW982 (Other Solid Carcinomas)
Summary of the method: as §1

[7] = system: NCI-H2122 (Lung Adenocarcinoma)
Summary of the method: as §1

[8] = system: MV-4-11 (Acute Myeloid Leukemia)
Summary of the method: as §1

[9] = system: NCI-H650 (Lung Adenocarcinoma)
Summary of the method: as §1

[10] = system: NCI-H1092 (Small Cell Lung Carcinoma)
Summary of the method: as §1

[11] = system: ALL-SIL (T-Lymphoblastic Leukemia)
Summary of the method: as §1

[12] = system: DU-145 (Prostate Carcinoma)
Summary of the method: as §1

[13] = system: NCI-H1838 (Lung Adenocarcinoma)
Summary of the method: as §1

[14] = system: Ca-Ski (Cervical Carcinoma)
Summary of the method: as §1

[15] = system: G-401 (Other Solid Carcinomas)
Summary of the method: as §1

[16] = system: OACM5-1 (Esophageal Adenocarcinoma)
Summary of the method: as §1

[17] = system: SW872 (Other Solid Carcinomas)
Summary of the method: as §1

[18] = system: HCC1937 (Breast Carcinoma)
Summary of the method: as §1

Row | Structure (SMILES) | Bliss excess [1] | Bliss excess [2] | Bliss excess [3] | Bliss excess [4] | Bliss excess [5] | Bliss excess (COLO-679 (Melanoma)) | Bliss excess [6] | Bliss excess [7] | Bliss excess [8] | Bliss excess [9] | Bliss excess [10] | Bliss excess [11] | Bliss excess [12] | Bliss excess [13] | Bliss excess [14] | Bliss excess [15] | Bliss excess [16] | Bliss excess [17] | Bliss excess [18]
1 | CC1(C)CCC(CN2CCN(c3ccc(C(=O)NS(=O)(=O)c4ccc(NCC5CCOCC5)c([N+](=O)[O-])c4)c(Oc4cnc5[nH]ccc5c4)c3)CC2)=C(c2ccc(Cl)cc2)C1 [Venetoclax] + C[C@@H]1COCCN1C2=NC(=NC(=C2)C3(CC3)[S@](=N)(=O)C)C4=C5C=CNC5=NC=C4 [AZD6738] (first compound max 1 µM, 7x7, partner max 10 µM) | 0.0165 | 0.0694 | 0.0382 | -0.0095 | -0.0672 | -0.0242 | -0.031 | -0.0137 | -0.006 | -0.0839 | 0.0739 | -0.0217 | -0.0097 | -0.0508 | -0.006 | -0.0944 | 0.0115 | 0.0001 | -0.0587
2 | CC1(C)CCC(CN2CCN(c3ccc(C(=O)NS(=O)(=O)c4ccc(NCC5CCOCC5)c([N+](=O)[O-])c4)c(Oc4cnc5[nH]ccc5c4)c3)CC2)=C(c2ccc(Cl)cc2)C1 [Venetoclax] + C[C@@H](Nc1cc(F)cc(F)c1)c1cc(C(=O)N(C)C)cc2c(=O)cc(N3CCOCC3)oc12 [AZD8186] (first compound max 1 µM, 7x7, partner max 3 µM) | -0.015 | -0.0292 | -0.0204 | -0.0254 | -0.0111 | 0.0001 | -0.0813 | 0.0055 | 0.0641 | -0.0257 | 0.0667 | 0.0344 | -0.0239 | -0.031 | -0.0259 | -0.0275 | 0.0321 | -0.0247 | -0.0179
3 | COc1cccc(OCCCN)c1-c1cc(Nc2cnc(C#N)cn2)n[nH]1 [Prexasertib] + C=CCn1c(=O)c2cnc(Nc3ccc(N4CCN(C)CC4)cc3)nc2n1-c1cccc(C(C)(C)O)n1 [AZD1775] (first compound max 1 µM, partner max 1 µM) | 0.0017 | 0.045 | 0.0873 | 0.0581 | 0.0656 | 0.0059 | -0.0341 | 0.0341 | 0.0775 | 0.0382 | 0.031 | 0.0648 | 0.0361 | -0.131 | 0.0816 | 0.0612 | 0.105 | 0.144 | -0.0247
4 | CC1(C)CCC(CN2CCN(c3ccc(C(=O)NS(=O)(=O)c4ccc(NCC5CCOCC5)c([N+](=O)[O-])c4)c(Oc4cnc5[nH]ccc5c4)c3)CC2)=C(c2ccc(Cl)cc2)C1 [Venetoclax] + C=CCn1c(=O)c2cnc(Nc3ccc(N4CCN(C)CC4)cc3)nc2n1-c1cccc(C(C)(C)O)n1 [AZD1775] (first compound max 1 µM, partner max 1 µM) | -0.0001 | -0.0553 | 0.117 | -0.0039 | 0.0612 | -0.053 | 0.018 | -0.0409 | -0.072 | -0.0422 | 0.0018 | 0.0792 | -0.0098 | -0.0334 | 0.0449 | -0.0898 | -0.056 | 0.005 | -0.0744
5 | CCc1c2c(nc3ccc(O)cc13)-c1cc3c(c(=O)n1C2)COC(=O)[C@]3(O)CC [SN-38] + CN(C)CCCOc1ccc(-c2ccc3ncc4c(c3c2)n(C2CCOCC2)c(=O)n4C)cn1 [AZD0156] (first compound max 0.3 µM, 7x7, partner max 1 µM) | -0.0259 | 0.0256 | 0.069 | 0.0912 | 0.0727 | -0.0767 | -0.0208 | 0.151 | 0.0414 | -0.0066 | -0.0472 | -0.0475 | -0.109 | -0.0741 | 0.0459 | 0.0568 | -0.0642 | 0.0048 | 0.0605
6 | CC1(C)CCC(CN2CCN(c3ccc(C(=O)NS(=O)(=O)c4ccc(NCC5CCOCC5)c([N+](=O)[O-])c4)c(Oc4cnc5[nH]ccc5c4)c3)CC2)=C(c2ccc(Cl)cc2)C1 [Venetoclax] + COc1cc(Nc2ncc3c(n2)-c2ccc(Cl)cc2C(c2c(F)cccc2OC)=NC3)ccc1C(=O)O [Alisertib] (first compound max 1 µM, 7x7, partner max 10 µM) | -0.0226 | 0.13 | -0.0938 | -0.0116 | -0.0265 | 0.0194 | -0.0524 | -0.0572 | 0.0134 | -0.0361 | 0.294 | 0.0202 | -0.0117 | -0.0183 | 0.0128 | -0.0135 | 0.0758 | 0.0428 | -0.0852
7 | CC(=O)Nc1cccc(-n2c(=O)n(C3CC3)c(=O)c3c(Nc4ccc(I)cc4F)n(C)c(=O)c(C)c32)c1 [Trametinib] + Cc1nc(-c2cn3c(n2)-c2ccc(-c4cnn(C(C)(C)C(N)=O)c4)cc2OCC3)n(C(C)C)n1 [Taselisib] (first compound max 1 µM, 7x7, partner max 10 µM) | 0.0713 | 0.197 | 0.186 | 0.24 | -0.0446 | -0.0331 | 0.0666 | 0.0862 | 0.27 | 0.136 | -0.0174 | 0.267 | 0.0241 | 0.0104 | 0.184 | 0.0082 | 0.03 | 0.0847 | -0.0125
